Measured values from US7217532B2, “Methods for detecting DNA damage and screening for cancer therapeutics” (The Wistar Institute of Anatomy and Biology, priority 2000, dated 2007).

Assays:
53Bp1 foci in U2OS cells [1] = test: 53Bp1 foci formation in cells treated with DNA damaging agents, by immunofluorescence; settings: 0.2 mM etoposide; 1 mM hydroxyurea for 1 to 25 hours
53Bp1 foci in U2OS cells [2] = test: Effect of wortmannin or caffeine on ionizing radiation-induced 53Bp1 foci, by immunofluorescent microscopy; assay type: cell-based, human; settings: 20 μM wortmannin, 1 Gy ionizing radiation, at 30 minutes
[3] = tested on: ionizing radiation-induced foci in U2OS cells; test: Localization of HA-tagged 53Bp1 deletion mutants to ionizing radiation-induced foci in U2OS cells; assay type: cell-based, human; settings: HA-tagged proteins expressed in U2OS cells, immunofluorescence after ionizing radiation
From the text: Stably transfected U2OS cell lines were created by transfecting the plasmid pSV2 [Chehab, N. H. et al, 1999 Proc. Natl. Acad. Sci., USA, 96:13777–13782] containing various N-terminal hemaglutinin (HA) tagged versions of 53Bp1. HA53Bp1 is the full-length protein bearing the HA tag on its N terminus. HA53Bp1ΔBRCT is similar to HA53Bp1 with amino acids 1713 to 1973 (the BRCT domains) of SEQ ID NO: 2 deleted therefrom. HA53Bp1C312 contains only the C-terminal 312 amino acids of 53Bp1, which include the nuclear localization signal (i.e., amino acids 1662 to 1701 of SEQ ID NO: 2 and the BRCT domain (amino acids 1702–1973 of SEQ ID NO: 2). The U2OS cells on cover slips were transiently transfected with the selected plasmid using the calcium phosphate method. Positively transfected colonies were pooled after selecting with neomycin. Expression was allowed to occur for 30 hours and then cells were treated, fixed, stained, and visualized as described below.
The following experiments were performed to identify the minimal focus-targeting (FT) domain of the relatively large (1972 amino acids) 53Bp1 protein [SEQ ID NO: 2]. The FT domain is the portion of the protein sequence required for targeting to ionizing radiation-induced foci. The FT domain participates in the mechanism of 53Bp1 relocalization. In addition, fragments of 53Bp1 that retain the ability to form ionizing radiation-induced foci act as dominant negative mutants by competing with endogenous 53Bp1 for localization to the IR-induced 53Bp1-binding sites.
A series of 53Bp1 deletion mutants was generated and expressed as HA-tagged proteins in U2OS cells. These cells were examined by immuno-fluorescence for their intracellular localization in response to ionizing radiation, as described in Examples 1 and 2. Nuclear localization is considered to be a prerequisite for targeting of 53Bp1 to ionizing radiation-induced foci. Therefore, all the mutants were constructed so that they retained the NLS of 53Bp1.

NC(=O)NO [HU, hydroxyurea]
53Bp1-containing foci formation in treated cells (53Bp1 foci in U2OS cells [1]): do not form

COC[C@H]1OC(=O)c2coc3c2[C@@]1(C)C1=C(C3=O)[C@@H]2CCC(=O)[C@@]2(C)C[C@H]1OC(C)=O [wortmannin]
reduction of percentage of cells containing 53Bp1 ionizing radiation-induced foci (53Bp1 foci in U2OS cells [2]): ~50%

AA residues 1–1053 and 1220–1972: 53Bp1 deletion mutant, deletion of residues 1054–1219 of SEQ ID NO: 2, HA-tagged
Ionizing Radiation-Induced Foci Localization [3]: Yes

AA residues 1–1053 and 1411–1972: 53Bp1 deletion mutant, deletion of residues 1054–1410 of SEQ ID NO: 2, HA-tagged
Ionizing Radiation-Induced Foci Localization [3]: No

AA residues 1–1711: 53Bp1 deletion mutant, deletion of AA residues 1712–1972 of SEQ ID NO: 2, HA-tagged
Ionizing Radiation-Induced Foci Localization [3]: Yes

full-length: full-length 53Bp1, AA residues 1–1972 of SEQ ID NO: 2, HA-tagged
Ionizing Radiation-Induced Foci Localization [3]: Yes

B1: AA residues 1–34 and 1047–1972: 53Bp1 deletion mutant, deletion of residues 35–1046 of SEQ ID NO: 2, HA-tagged (protein)
chain: MDPTGSQLDSDFSQQDTPCLIIEDSQPESQVLEDEARSEDPPTTPIRGNLLHFPSSQGEEEKEKLEGDHTIRQSQQPMKPISPVKDPVSPASQKMVIQGPSSPQGEAMVTDVLEDQKEGRSTNKENPSKALIERPSQNNIGIQTMECSLRVPETVSAATQTIKNVCEQGTSTVDQNFGKQDATVQTERGSGEKPVSAPGDDTESLHSQGEEEFDMPQPPHGHVLHRHMRTIREVRTLVTRVITDVYYVDGTEVERKVTEETEEPIVECQECETEVSPSQTGGSSGDLGDISSFSSKASSLHRTSSGTSLSAMHSSGSSGKGAGPLRGKTSGTEPADFALPSSRGGPGKLSPRKGVSQTGTPVCEEDGDAGLGIRQGGKAPVTPRGRGRRGRPPSRTTGTRETAVPGPLGIEDISPNLSPDDKSFSRVVPRVPDSTRRTDVGAGALRRSDSPEIPFQAAAGPSDGLDASSPGNSFVGLRVVAKWSSNGYFYSGKITRDVGAGKYKLLFDDGYECDVLGKDILLCDPIPLDTEVTALSEDEYFSAGVVKGHRKESGELYYSIEKEGQRKWYKRMAVILSLEQGNRLREQYGLGPYEAVTPLTKAADISLDNLVEGKRKRRSNVSSPATPTASSSSSTTPTRKITESPRASMGVLSGKRKLITSEEERSPAKRGRKSATVKPGAVGAGEFVSPCESGDNTGEPSALEEQRGPLPLNKTLFLGYAFLLTMATTSDKLASRSKLPDGPTGSSEEEEEFLEIPPFNKQYTESQLRAGAGYILEDFNEAQCNTAYQCLLIADQHCRTRKYFLCLASGIPCVSHVWVHDSCHANQLQNYRNYLLPAGYSLEEQRILDWQPRENPFQNLKVLLVSDQQQNFLELWSEILMTGGAASVKQHHSSAHNKDIALGVFDVVVTDPSCPASVLKCAEALQLPVVSQEWVIQCLIVGERIGFKQHPKYKHDYVSH
modifications: HA tag; human 53Bp1
Ionizing Radiation-Induced Foci Localization [3]: Yes

B2: AA residues 1–34 and 1220–1711: 53Bp1 deletion mutant, deletion of residues 35–1219 and 1712–1972 of SEQ ID NO: 2, HA-tagged (protein)
chain: MDPTGSQLDSDFSQQDTPCLIIEDSQPESQVLEDQGEEEFDMPQPPHGHVLHRHMRTIREVRTLVTRVITDVYYVDGTEVERKVTEETEEPIVECQECETEVSPSQTGGSSGDLGDISSFSSKASSLHRTSSGTSLSAMHSSGSSGKGAGPLRGKTSGTEPADFALPSSRGGPGKLSPRKGVSQTGTPVCEEDGDAGLGIRQGGKAPVTPRGRGRRGRPPSRTTGTRETAVPGPLGIEDISPNLSPDDKSFSRVVPRVPDSTRRTDVGAGALRRSDSPEIPFQAAAGPSDGLDASSPGNSFVGLRVVAKWSSNGYFYSGKITRDVGAGKYKLLFDDGYECDVLGKDILLCDPIPLDTEVTALSEDEYFSAGVVKGHRKESGELYYSIEKEGQRKWYKRMAVILSLEQGNRLREQYGLGPYEAVTPLTKAADISLDNLVEGKRKRRSNVSSPATPTASSSSSTTPTRKITESPRASMGVLSGKRKLITSEEERSPAKRGRKSATVKPGAVGAGEFVSPCESGDNTGE
modifications: HA tag; human 53Bp1
Ionizing Radiation-Induced Foci Localization [3]: Yes

B3: AA residues 1–34 and 1047–1711: 53Bp1 deletion mutant, deletion of residues 35–1046 and 1712–1972 of SEQ ID NO: 2, HA-tagged (protein)
chain: MDPTGSQLDSDFSQQDTPCLIIEDSQPESQVLEDEARSEDPPTTPIRGNLLHFPSSQGEEEKEKLEGDHTIRQSQQPMKPISPVKDPVSPASQKMVIQGPSSPQGEAMVTDVLEDQKEGRSTNKENPSKALIERPSQNNIGIQTMECSLRVPETVSAATQTIKNVCEQGTSTVDQNFGKQDATVQTERGSGEKPVSAPGDDTESLHSQGEEEFDMPQPPHGHVLHRHMRTIREVRTLVTRVITDVYYVDGTEVERKVTEETEEPIVECQECETEVSPSQTGGSSGDLGDISSFSSKASSLHRTSSGTSLSAMHSSGSSGKGAGPLRGKTSGTEPADFALPSSRGGPGKLSPRKGVSQTGTPVCEEDGDAGLGIRQGGKAPVTPRGRGRRGRPPSRTTGTRETAVPGPLGIEDISPNLSPDDKSFSRVVPRVPDSTRRTDVGAGALRRSDSPEIPFQAAAGPSDGLDASSPGNSFVGLRVVAKWSSNGYFYSGKITRDVGAGKYKLLFDDGYECDVLGKDILLCDPIPLDTEVTALSEDEYFSAGVVKGHRKESGELYYSIEKEGQRKWYKRMAVILSLEQGNRLREQYGLGPYEAVTPLTKAADISLDNLVEGKRKRRSNVSSPATPTASSSSSTTPTRKITESPRASMGVLSGKRKLITSEEERSPAKRGRKSATVKPGAVGAGEFVSPCESGDNTGE
modifications: HA tag; human 53Bp1
Ionizing Radiation-Induced Foci Localization [3]: Yes

B4: AA residues 1661–1972: 53Bp1 deletion mutant, deletion of residues 1–1660 of SEQ ID NO: 2, HA-tagged (protein)
chain: MGVLSGKRKLITSEEERSPAKRGRKSATVKPGAVGAGEFVSPCESGDNTGEPSALEEQRGPLPLNKTLFLGYAFLLTMATTSDKLASRSKLPDGPTGSSEEEEEFLEIPPFNKQYTESQLRAGAGYILEDFNEAQCNTAYQCLLIADQHCRTRKYFLCLASGIPCVSHVWVHDSCHANQLQNYRNYLLPAGYSLEEQRILDWQPRENPFQNLKVLLVSDQQQNFLELWSEILMTGGAASVKQHHSSAHNKDIALGVFDVVVTDPSCPASVLKCAEALQLPVVSQEWVIQCLIVGERIGFKQHPKYKHDYVSH
modifications: HA tag; human 53Bp1
Ionizing Radiation-Induced Foci Localization [3]: No

B5: AA residues 1–34 and 1411–1711: 53Bp1 deletion mutant, deletion of residues 35–1410 and 1712–1972 of SEQ ID NO: 2, HA-tagged (protein)
chain: MDPTGSQLDSDFSQQDTPCLIIEDSQPESQVLEDTRETAVPGPLGIEDISPNLSPDDKSFSRVVPRVPDSTRRTDVGAGALRRSDSPEIPFQAAAGPSDGLDASSPGNSFVGLRVVAKWSSNGYFYSGKITRDVGAGKYKLLFDDGYECDVLGKDILLCDPIPLDTEVTALSEDEYFSAGVVKGHRKESGELYYSIEKEGQRKWYKRMAVILSLEQGNRLREQYGLGPYEAVTPLTKAADISLDNLVEGKRKRRSNVSSPATPTASSSSSTTPTRKITESPRASMGVLSGKRKLITSEEERSPAKRGRKSATVKPGAVGAGEFVSPCESGDNTGE
modifications: HA tag; human 53Bp1
Ionizing Radiation-Induced Foci Localization [3]: No
